This passage reports IC50 results from PubChem BioAssay AID651642 (Sanford-Burnham Center for Chemical Genomics, 2012).

For one assay, the system named is HL-1. The experiment in a line: cardiomyocyte survival under oxidative or metabolic stress – cell-based, panel, H9c2 and HL-1, H2O2, 2-deoxyglucose, ATP luminescence, SAR follow-up (AID 651642).
The test system of a further assay is H9c2. The assay is described as above.
Setting [1] is: H9c2/HL-1 cardiomyocyte 2-deoxyglucose damage, mean of runs, with 2-deoxyglucose, mean IC50 across panel.
[2] abbreviates: H9c2/HL-1 cardiomyocyte 2-deoxyglucose damage, run 1, with 2-deoxyglucose.
Where [3] appears, read: H9c2/HL-1 cardiomyocyte 2-deoxyglucose damage, run 2, with 2-deoxyglucose.
The mark [4] stands for this setting: H9c2/HL-1 cardiomyocyte 2-deoxyglucose damage, run 3, with 2-deoxyglucose.
[5] abbreviates: H9c2/HL-1 cardiomyocyte 2-deoxyglucose damage, run 4, with 2-deoxyglucose.
Where [6] appears, read: H9c2/HL-1 cardiomyocyte H2O2 oxidative damage, mean of runs, with H2O2, mean IC50 across panel.
[7] abbreviates: H9c2/HL-1 cardiomyocyte H2O2 oxidative damage, run 1, with H2O2.
Setting [8] is: H9c2/HL-1 cardiomyocyte H2O2 oxidative damage, run 2, with H2O2.
Setting [9] is: H9c2/HL-1 cardiomyocyte H2O2 oxidative damage, run 3, with H2O2.
Where [10] appears, read: H9c2/HL-1 cardiomyocyte H2O2 oxidative damage, run 4, with H2O2.

pIC50: −log10 of the molar value.

Turning to `COc1ccc2c(c1OC)C(=O)N1c3ccccc3C(=O)N(Cc3ccccn3)C21` (stereo unspecified), the pIC50 in the assay on HL-1 (setting [1]), with HL-1 (setting [2]), in the assay on HL-1 (setting [3]), in the assay with HL-1 (setting [4]), with HL-1 (setting [5]) and in the assay on HL-1 (setting [6]) was less than 4.10 throughout. Also, the pIC50 in the assay on HL-1 (setting [7]), in the assay with HL-1 (setting [8]), with HL-1 (setting [9]), in the assay with HL-1 (setting [10]), with H9c2 (setting [1]) and with H9c2 (setting [2]) was less than 4.10 in each case. Further, the pIC50 with H9c2 (setting [3]) was less than 4.10; in the assay on H9c2 (setting [4]), less than 4.10; in the assay with H9c2 (setting [5]), less than 4.10; in the assay with H9c2 (setting [7]) it was 5.12; with H9c2 (setting [8]), 4.99; in the assay with H9c2 (setting [9]), less than 4.10. This compound gave a pIC50 in the assay on H9c2 (setting [10]) of less than 4.10.
For the compound `CCOC(=O)c1cccc(NC(=O)c2cc(-c3cc(OC)c(OC)c(OC)c3)nc3ccc(Cl)cc23)c1`, the pIC50 in the assay with HL-1 (setting [1]), in the assay on HL-1 (setting [2]), in the assay on HL-1 (setting [3]), with HL-1 (setting [4]), in the assay on HL-1 (setting [5]) and in the assay on HL-1 (setting [7]) was less than 4.10 throughout. In addition, the pIC50 with HL-1 (setting [8]) is less than 4.10; in the assay with HL-1 (setting [9]), 5.75; in the assay on HL-1 (setting [10]), 5.39; in the assay on H9c2 (setting [1]), less than 4.10; in the assay with H9c2 (setting [2]), less than 4.10; with H9c2 (setting [3]), less than 4.10. The pIC50 was less than 4.10 in the assay with H9c2 (setting [4]); less than 4.10 in the assay on H9c2 (setting [5]); 5.47 in the assay on H9c2 (setting [7]); 4.68 with H9c2 (setting [8]); less than 4.10 with H9c2 (setting [9]); less than 4.10 in the assay with H9c2 (setting [10]).
With `COC(=O)CNC(=O)c1cccc(NC(=O)c2cc(-c3cc(OC)c(OC)c(OC)c3)nc3ccccc23)c1`, the pIC50 in the assay on HL-1 (setting [1]) was 5.71; in the assay with HL-1 (setting [2]) it was 5.90; in the assay on HL-1 (setting [3]), 5.85; in the assay with HL-1 (setting [4]), 5.63; in the assay on HL-1 (setting [5]), 5.54; in the assay with HL-1 (setting [6]), 5.37. Also, the pIC50 in the assay on HL-1 (setting [7]) is 5.59; in the assay on HL-1 (setting [8]), 5.46; with HL-1 (setting [9]) it was 5.33; in the assay with HL-1 (setting [10]), 5.20; with H9c2 (setting [1]), 5.12; in the assay on H9c2 (setting [2]) it was 5.05. Moreover, the pIC50 in the assay with H9c2 (setting [3]) is 5.03; in the assay with H9c2 (setting [4]) it was 5.24; in the assay on H9c2 (setting [5]), 5.20; in the assay with H9c2 (setting [7]), less than 4.10; with H9c2 (setting [8]) it was 5.77; in the assay on H9c2 (setting [9]) it was less than 4.10. The compound further had a pIC50 with H9c2 (setting [10]) of less than 4.10.
Regarding `CCOC(=O)c1cccc(NC(=O)CNC(=O)c2cc(-c3cc(OC)c(OC)c(OC)c3)nc3ccc(C)cc23)c1`, the pIC50 in the assay with HL-1 (setting [1]) is 5.66; in the assay on HL-1 (setting [2]), 5.96; in the assay with HL-1 (setting [3]), 5.84; with HL-1 (setting [4]) it was 5.54; in the assay with HL-1 (setting [5]), 5.47; in the assay with HL-1 (setting [6]), 5.52. In addition, the pIC50 with HL-1 (setting [7]) is 5.54; in the assay on HL-1 (setting [8]) it was 5.48; with HL-1 (setting [9]) it was 5.84; in the assay with HL-1 (setting [10]), 5.35; in the assay on H9c2 (setting [1]) it was 5.57; with H9c2 (setting [2]), 5.50. In addition, the pIC50 is 5.45 with H9c2 (setting [3]); 5.73 with H9c2 (setting [4]); 5.66 with H9c2 (setting [5]); 6.18 with H9c2 (setting [6]); 6.14 with H9c2 (setting [7]); 6.07 with H9c2 (setting [8]). In addition, the figures for the pIC50 in the assay with H9c2 (setting [9]) and in the assay with H9c2 (setting [10]) were 6.29 and 6.24, respectively.
Turning to `COc1cc(-c2cc(C(=O)Nc3cccc(C(=O)NCc4ccccc4)c3)c3ccccc3n2)cc(OC)c1OC`, the pIC50 in the assay on HL-1 (setting [1]) is 5.87; in the assay with HL-1 (setting [2]), 6.13; in the assay on HL-1 (setting [3]), 6.09; in the assay on HL-1 (setting [4]), 5.73; in the assay on HL-1 (setting [5]), 5.69; in the assay with HL-1 (setting [6]) it was 5.48. Moreover, the pIC50 with HL-1 (setting [7]) was 5.77; with HL-1 (setting [8]), 5.65; with HL-1 (setting [9]), 5.62; in the assay with HL-1 (setting [10]), 5.16; in the assay on H9c2 (setting [1]) it was 5.47; in the assay on H9c2 (setting [2]), 5.42. The pIC50 in the assay on H9c2 (setting [3]) was 5.34; in the assay with H9c2 (setting [4]), 5.63; in the assay on H9c2 (setting [5]) it was 5.55; in the assay with H9c2 (setting [6]), 5.95; with H9c2 (setting [7]) it was 5.81; in the assay on H9c2 (setting [8]), 5.79. For the same compound, the figures for the pIC50 with H9c2 (setting [9]) and in the assay with H9c2 (setting [10]) were 6.17 and 6.16, respectively.
`CCOC(=O)c1cccc(NC(=O)CNC(=O)c2cc(-c3cc(OC)c(OC)c(OC)c3)nc3ccc(F)cc23)c1`: the pIC50 in the assay on HL-1 (setting [1]) was 5.59; with HL-1 (setting [2]), 5.81; in the assay on HL-1 (setting [3]), 5.76; with HL-1 (setting [4]) it was 5.48; in the assay with HL-1 (setting [5]) it was 5.43; in the assay on HL-1 (setting [6]), 5.62. In addition, the pIC50 was 5.77 in the assay with HL-1 (setting [7]); 5.49 in the assay with HL-1 (setting [8]); 5.70 with HL-1 (setting [9]); 5.58 in the assay with HL-1 (setting [10]); 5.42 in the assay on H9c2 (setting [1]); 5.32 in the assay on H9c2 (setting [2]). In addition, the pIC50 was 5.27 in the assay with H9c2 (setting [3]); 5.70 in the assay with H9c2 (setting [4]); 5.52 in the assay on H9c2 (setting [5]); 6.16 with H9c2 (setting [6]); 6.08 in the assay on H9c2 (setting [7]); 6.07 in the assay on H9c2 (setting [8]). In addition, the pIC50 is 6.28 in the assay with H9c2 (setting [9]) and 6.27 in the assay on H9c2 (setting [10]).
